Where two headings read alike, the source gives them in different places.
Key:
[1] = tested on: alpha dystroglycan (α-DG); details: cited from earlier work
[2] = tested on: prostate cancer cell line LNCaP; assay: LNCaP cell culture, growth and death (FIG. 5, FIG. 10); assay type: cell-based; details: for number of cancer cells / anticancer effect: 10 mM, 7 days (FIG. 10)
Protocol: A dose dependent decrease in cell density was clearly detected with 2-deoxyribitol treatment, but not with ribitol treatment.
Less than 50% of cells and 10% of cells were detected with the treatment of 10 mM and 50 mM 2-deoxyribitol, respectively.

[3] = tested on: breast cancer cell line MCF7; assay: MCF7 cell culture, growth and death (FIG. 2); assay type: cell-based; details: MCF7, 0.4-50 mM, 3 day treatment
Protocol: From left-top-to-bottom: Control, 0.4 mM Drug, 2 mM rib, and 10 mM Drug; From right-top-to-bottom: 0.4 mM rib; 2 mM Drug; 10 mM rib; and 50 mM Drug.
However, this effect was not related to the enhanced expression of glycosylation of α-DG.

[4] = tested on: MCF7 cells; assay: Mammosphere formation (FIG. 4); assay type: cell-based; details: MCF7, Vitamin C 50 μM 5 days, then normal medium 6 days
Protocol: Cells were also treated with Vitamin C (VitC) at a concentration of 50 μM for 5 days (5d) and then returned to normal medium (NM) for 6 days (d6), without (lower left panel) or with 2-deoxyribitol (Drug, lower right panel). The formation of cancer mammospheres, considered to be cancer stem cell-rich population, can be seen in culture without Drug treatment, and with Vitamin C treatment only. Drug treatment greatly reduces to eliminates the formation of cancer mammospheres.
To examine mammosphere formation, MCF7 cells were grown for 11 days with or without 2-deoxyribitol (drug) treatment (FIG. 4, top panels). In addition, MCF7 cells were treated with Vitamin C at the concentration of 50 μM for 5 days and then returned to normal medium (“NM”) for 6 days (FIG. 4, lower panels).

[5] = Pei Lu et al., (2020) Sci Rep 10(1):4935

SMILES | glycosylation of α-DG [1, 5] | number of cancer cells / anticancer effect [2] | further results
O=C(CO)[C@H](O)[C@H](O)CO [ribulose] | showed an effect of enhancing glycosylation of α-DG | – | –
O=CC[C@H](O)[C@H](O)CO [2-deoxyribose, reference compound] | – | did not show the same anticancer effects | –
O=P(O)(O)OC[C@@H](O)[C@@H](O)[C@@H](O)CO [ribitol-5-phosphate] | showed an effect of enhancing glycosylation of α-DG | – | –
OC[C@@H](O)[C@@H](O)[C@@H](O)CO [ribitol, reference compound] | – | did not show the same anticancer effects | effect on cell growth, death and cell density ([2]; 2-50 mM, 4 days): slightly increased; glycosylation of α-DG ([1]; some cancer cells including MCF7, background statement): enhances glycosylation of α-DG; effect on cell growth, death and morphology [3]: no clear effect on cell growth and morphology
O=C1O[C@H]([C@@H](O)CO)C(O)=C1O [Vitamin C, reference compound] | – | – | number of mammospheres, Vitamin C then normal medium [4]: greatly increased the number of well-defined mammospheres
O=C[C@H](O)[C@H](O)[C@H](O)CO [ribose] | showed an effect of enhancing glycosylation of α-DG | – | –
